{"source": "patent US20100221345A1", "about": "“OSTEOGENIC BIOMATERIAL CONTAINING OSTEOGENESIS PROMOTING SUBSTANCE AND NANOGEL” (NATIONAL UNIVERSITY CORPORATION TOKYO MEDICAL AND, priority 2006, published 2010)", "key": {"mouse parietal bone": {"tested_on": "mouse parietal bone", "experiment": "Osteogenesis in mouse parietal bone with PGE2-containing CHP nanogel (width by 2-D μCT)", "assay_type": "in vivo", "conditions": "3-week old ICR mouse, local administration onto parietal bone 5 times a week for 4 weeks, PGE2 0.6 μg/ml, FIG. 3", "procedure": "PGE2-containing hydrophobized polysaccharide nanogel was administered to a mouse parietal bone to observe osteogenesis.\n(§1) The PGE2-containing CHP prepared by the same manner as in Example 2 was locally administrated onto the parietal bone of a 3-week old ICR mouse 5 times a week for 4 weeks. […] of the prepared PGE2-containing CHP solution (PGE2 0.6 μg/ml) was administered for a dose. Evaluation was conducted for 4 groups of physiological saline, PGE2, CHP, PGE2-containing CHP (N=5). After 4 weeks of administration, the mice were sacrificed, and the parietal bones were collected, and the width of the parietal bone was measured by 2-D μCT. In order to study the effect on the bones of a whole body, the amount of cancellous bone of the femur was evaluated."}, "femur cancellous bone": {"tested_on": "femur cancellous bone", "experiment": "Effect on bones of the whole body: amount of cancellous bone of the femur", "assay_type": "in vivo, ICR mouse", "conditions": "same mice, local parietal administration 5 times a week for 4 weeks, FIG. 4", "procedure": "as §1"}, "MC3T3E1 cells [1]": {"tested_on": "MC3T3E1 cells", "experiment": "Cell differentiation by alkaline phosphatase (ALP) activity in osteoblast cell line", "assay_type": "cell-based", "conditions": "PGE2 10 μM, 24 hours, FIG. 5", "procedure": "(§2) In order to understand the mechanism at the cellular level of the PGE2-containing CHP nanogel, the osteoblast cell line MC3T3E1 cell culture system was used to analyze the cell differentiation by alkaline phosphatase (ALP) activity and the cell growth by the MTT method.\n(§3) MC3T3E1 cells were seeded 5×10^3 cells/well in a 96-well plate and cultured in the presence of […] at 37° C. for 1 day. These cells were supplied with the PGE2-containing CHP solution (PGE2 10 μM) prepared in the same manner as in Example 2 to get the same concentration, then cultured in the presence of […] at 37° C. for 24 hours, then collected by scraping, and dissolved in 0.05 ml of a lysis buffer. The alkaline phosphatase (ALP) activity was measured according to the published protocols. In addition, the MTT method was conducted according to the published protocols."}, "MC3T3E1 cells [2]": {"tested_on": "MC3T3E1 cells", "experiment": "Cell growth by the MTT method in osteoblast cell line", "assay_type": "cell-based", "conditions": "PGE2 10 μM, 24 hours, FIG. 5", "procedure": "as §2, §3"}}}
{"smiles": "CCCCC[C@H](O)/C=C/[C@H]1[C@H](O)CC(=O)[C@@H]1C/C=C\\CCCC(=O)O", "note": "[PGE2, Prostaglandin E2]", "values": [{"measurement": "width of the parietal bone", "setting": "mouse parietal bone", "result": "no change"}, {"measurement": "amount of cancellous bone in the femur apart from the administration site", "setting": "femur cancellous bone", "result": "increase"}, {"measurement": "cellular differentiation (ALP activity)", "setting": "MC3T3E1 cells [1]", "result": "increase"}, {"measurement": "cellular growth (MTT method)", "setting": "MC3T3E1 cells [2]", "result": "increase"}]}
